Measurements taken from patent US12077555B2, “STAT degraders and uses thereof” (Kymera Therapeutics, Inc., priority 2019, dated 2024).

Molecular target: STAT3 (Homo sapiens, UniProt P40763)
Assay: STAT3 HiBiT degradation assay in transfected A549 cells
Format: cell-based
Set-up: expressed in transfected cells; host or cells: A549
Conditions: A549, 24 h; read-out: STAT3 HiBiT A549 degradation 24 h: Average external-Abs DC50
How it was run: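 Transfected A549 cells (~2000/well) plated 24 h, then treated 24 h at 37 °C, 5% CO2 with a 3-fold, 10-point compound dilution. HiBiT lytic luminescence read after 10 min at room temperature; remaining STAT3 normalized to negative and positive controls, four-parameter fit. DC50 binned A <0.01, B 0.01–0.1, C 0.1–1.0, D >1.0 µM.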

Sequence of STAT3 (P40763 whole entry): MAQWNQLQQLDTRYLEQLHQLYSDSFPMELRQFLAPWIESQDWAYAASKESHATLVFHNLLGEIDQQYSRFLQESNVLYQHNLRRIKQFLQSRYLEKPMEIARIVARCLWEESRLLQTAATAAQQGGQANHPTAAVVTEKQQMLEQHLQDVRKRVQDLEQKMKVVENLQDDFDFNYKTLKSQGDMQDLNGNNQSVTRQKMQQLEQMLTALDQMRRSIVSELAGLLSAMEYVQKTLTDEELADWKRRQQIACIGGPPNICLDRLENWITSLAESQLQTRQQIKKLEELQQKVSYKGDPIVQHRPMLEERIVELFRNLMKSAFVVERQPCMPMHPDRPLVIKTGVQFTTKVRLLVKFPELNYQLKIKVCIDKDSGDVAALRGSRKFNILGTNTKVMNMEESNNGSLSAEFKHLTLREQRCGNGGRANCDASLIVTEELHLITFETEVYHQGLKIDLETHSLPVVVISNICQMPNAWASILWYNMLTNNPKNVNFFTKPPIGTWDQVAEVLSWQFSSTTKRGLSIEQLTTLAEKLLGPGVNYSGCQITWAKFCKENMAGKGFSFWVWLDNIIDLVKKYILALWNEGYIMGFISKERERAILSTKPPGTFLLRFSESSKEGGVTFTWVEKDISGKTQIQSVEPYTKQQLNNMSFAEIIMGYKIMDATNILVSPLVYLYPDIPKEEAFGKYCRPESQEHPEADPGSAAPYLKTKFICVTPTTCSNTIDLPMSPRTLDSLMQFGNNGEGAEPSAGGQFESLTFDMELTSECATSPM

Row | Structure (SMILES) | DC50 [nM]
1 | Cc1ncsc1-c1ccc([C@H](C)NC(=O)[C@@H]2C[C@@H](O)CN2C(=O)[C@@H](NC(=O)CCCCCc2cc(OC[C@H](CCC(N)=O)NC(=O)[C@@H]3Cc4cccc5c4N3C(=O)[C@@H](NC(=O)c3cc4cc(C(=O)P(=O)(O)O)ccc4[nH]3)CC5)ccc2F)C(C)(C)C)cc1 [Compound I-215] | 10 to 100
2 | Cc1ncsc1-c1ccc([C@H](C)NC(=O)[C@@H]2C[C@@H](O)CN2C(=O)[C@@H](NC(=O)CCCCCc2cc(F)cc(OC[C@H](CCC(N)=O)NC(=O)[C@@H]3Cc4cccc5c4N3C(=O)[C@@H](NC(=O)c3cc4cc(C(=O)P(=O)(O)O)ccc4[nH]3)CC5)c2)C(C)(C)C)cc1 [Compound I-216, 2-[[(2S,11S)-2-[[(2S)-4-carbamoyl-1-[3-fluoro-5-(5-[[(2S)-1-[(2S,4R)-4-hydroxy-2-[[(1S)-1-[4-(4-methyl-1,3-thiazol-5-yl)phenyl]ethyl]carbamoyl]pyrrolidin-1-yl]-3,3-dimethyl-1-oxobutan-2-yl]carbamoyl]pentyl)phenoxy]butan-2-yl]carbamoyl]-12-oxo-1-azatricyclo[6.4.1.0^[4,13]]trideca-4(13),5,7-trien-11-yl]carbamoyl]-1H-indole-5-carbonylphosphonic acid] | 10 to 100
3 | Cc1ncsc1-c1ccc([C@H](C)NC(=O)[C@@H]2C[C@@H](O)CN2C(=O)[C@@H](NC(=O)CCCCCc2cccc(OC[C@H](CCC(N)=O)NC(=O)[C@@H]3Cc4cccc5c4N3C(=O)[C@@H](NC(=O)c3cc4cc(C(=O)P(=O)(O)O)ccc4[nH]3)CC5)c2F)C(C)(C)C)cc1 [Compound I-217, 2-[[(2S,11S)-2-[[(2S)-4-carbamoyl-1-[2-fluoro-3-(5-[[(2S)-1-[(2S,4R)-4-hydroxy-2-[[(1S)-1-[4-(4-methyl-1,3-thiazol-5-yl)phenyl]ethyl]carbamoyl]pyrrolidin-1-yl]-3,3-dimethyl-1-oxobutan-2-yl]carbamoyl]pentyl)phenoxy]butan-2-yl]carbamoyl]-12-oxo-1-azatricyclo[6.4.1.0^[4,13]]trideca-4(13),5,7-trien-11-yl]carbamoyl]-1H-indole-5-carbonylphosphonic acid] | < 10
4 | Cc1cc(CO[C@H](C)[C@H](CCC(N)=O)NC(=O)[C@@H]2Cc3cccc4c3N2C(=O)[C@@H](NC(=O)c2cc3cc(C(=O)P(=O)(O)O)ccc3[nH]2)CC4)ccc1CCCCC(=O)N[C@H](C(=O)N1C[C@H](O)C[C@H]1C(=O)N[C@@H](C)c1ccc(-c2scnc2C)cc1)C(C)(C)C [Compound I-218, diammonium 2-[[(2S,11S)-2-[[(3S,4R)-1-carbamoyl-4-[[4-(4-[[(2S)-1-[(2S,4R)-4-hydroxy-2-[[(1S)-1-[4-(4-methyl-1,3-thiazol-5-yl)phenyl]ethyl]carbamoyl]pyrrolidin-1-yl]-3,3-dimethyl-1-oxobutan-2-yl]carbamoyl]butyl)-3-methylphenyl]methoxy]pentan-3-yl]carbamoyl]-12-oxo-1-azatricyclo[6.4.1.0^[4,13]]trideca-4(13),5,7-trien-11-yl]carbamoyl]-1H-indole-5-carbonylphosphonate] | < 10
5 | Cc1ncsc1-c1ccc([C@H](C)NC(=O)[C@@H]2C[C@@H](O)CN2C(=O)[C@@H](NC(=O)CCCCCc2cccc(O[C@H](C)[C@H](CCC(N)=O)NC(=O)[C@@H]3Cc4cccc5c4N3C(=O)[C@@H](NC(=O)c3cc4cc(C(=O)P(=O)(O)O)ccc4[nH]3)CC5)c2)C(C)(C)C)cc1 [Compound I-219, 2-[[(2S,11S)-2-[[(3S,4R)-1-carbamoyl-4-[3-(5-[[(2S)-1-[(2S,4R)-4-hydroxy-2-[[(1S)-1-[4-(4-methyl-1,3-thiazol-5-yl)phenyl]ethyl]carbamoyl]pyrrolidin-1-yl]-3,3-dimethyl-1-oxobutan-2-yl]carbamoyl]pentyl)phenoxy]pentan-3-yl]carbamoyl]-12-oxo-1-azatricyclo[6.4.1.0^[4,13]]trideca-4(13),5,7-trien-11-yl]carbamoyl]-1H-indole-5-carbonylphosphonic acid] | 100 to 1000
6 | Cc1ncsc1-c1ccc([C@H](C)NC(=O)[C@@H]2C[C@@H](O)CN2C(=O)[C@@H](NC(=O)CCCCCc2cccc(CNC(=O)[C@H](CCC(N)=O)NC(=O)[C@@H]3Cc4cccc5c4N3C(=O)[C@@H](NC(=O)c3cc4cc(C(=O)P(=O)(O)O)ccc4[nH]3)CC5)c2)C(C)(C)C)cc1 [Compound I-220, 2-[[(2S,11S)-2-[[(1S)-3-carbamoyl-1-([[3-(5[[(2S)-1-[(2S,4R)-4-hydroxy-2-[[(1S)-1-[4-(4-methyl-1,3-thiazol-5-yl)phenyl]ethyl]carbamoyl]pyrrolidin-1-yl]-3,3-dimethyl-1-oxobutan-2-yl]carbamoyl]pentyl)phenyl]methyl]carbamoyl)propyl]carbamoyl]-12-oxo-1-azatricyclo[6.4.1.0^[4,13]]trideca-4(13),5,7-trien-11-yl]carbamoyl]-1H-indole-5-carbonylphosphonic acid] | 100 to 1000
7 | Cc1ncsc1-c1ccc(CNC(=O)[C@@H]2C[C@@H](O)CN2C(=O)[C@@H](NC(=O)CCCCc2cccc(OC[C@H](CCC(N)=O)NC(=O)[C@@H]3Cc4cccc5c4N3C(=O)[C@@H](NC(=O)c3cc4cc(C(=O)P(=O)(O)O)ccc4[nH]3)CC5)c2)C(C)(C)C)cc1 [Compound I-221] | 10 to 100
8 | Cc1ncsc1-c1ccc(CNC(=O)[C@@H]2C[C@@H](O)CN2C(=O)[C@@H](NC(=O)CCCCCc2cccc(CNC(=O)[C@H](CCC(N)=O)NC(=O)[C@@H]3Cc4cccc5c4N3C(=O)[C@@H](NC(=O)c3cc4cc(C(=O)P(=O)(O)O)ccc4[nH]3)CC5)c2)C(C)(C)C)cc1 [Compound I-222, 2-[[(2S,11S)-2-[[(1S)-3-carbamoyl-1--([[3-(5-[[(2S)-1-[(2S,4R)-4-hydroxy-2-([[4-(4-methyl-1,3-thiazol-5-yl)phenyl]methyl]carbamoyl)pyrrolidin-1-yl]-3,3-dimethyl-1-oxobutan-2-yl]carbamoyl]pentyl)phenyl]methyl]carbamoyl)propyl]carbamoyl]-12-oxo-1-azatricyclo[6.4.1.0^[4,13]]trideca-4(13),5,7-trien-11-yl]carbamoyl]-1H-indole-5-carbonylphosphonic acid] | > 1000
9 | Cc1ncsc1-c1ccc(CNC(=O)[C@@H]2C[C@@H](O)CN2C(=O)[C@@H](NC(=O)C2(CCCc3ccc(CO[C@H](C)[C@H](CCC(N)=O)NC(=O)[C@@H]4Cc5cccc6c5N4C(=O)[C@@H](NC(=O)c4cc5cc(C(=O)P(=O)(O)O)ccc5[nH]4)CC6)cc3)CC2)C(C)(C)C)cc1 [Compound I-223, diammonium 2-[[(2S,11S)-2-[[(3S,4R)-1-carbamoyl-4-([4-[3-(1-[[(2S)-1-[(2S,4R)-4-hydroxy-2-([[4-(4-methyl-1,3-thiazol-5-yl)phenyl]methyl]carbamoyl)pyrrolidin-1-yl]-3,3-dimethyl-1-oxobutan-2-yl]carbamoyl]cyclopropyl)propyl]phenyl]methoxy)pentan-3-yl]carbamoyl]-12-oxo-1-azatricyclo[6.4.1.0^[4,13]]trideca-4(13),5,7-trien-11-yl]carbamoyl]-1H-indole-5-carbonylphosphonate] | 100 to 1000
10 | Cc1ncsc1-c1ccc(CNC(=O)[C@@H]2C[C@@H](O)CN2C(=O)[C@@H](NC(=O)CCCCCc2cccc(CC[C@H](CCC(N)=O)NC(=O)[C@@H]3Cc4cccc5c4N3C(=O)[C@@H](NC(=O)c3cc4cc(C(=O)P(=O)(O)O)ccc4[nH]3)CC5)c2)C(C)(C)C)cc1 [Compound I-224, diammonium 2-[[(2S,11S)-2-[[(3R)-1-carbamoyl-5-[3-[5-[[(2S)-1-[(2S,4R)-4-hydroxy-2-([[4-(4-methyl-1,3-thiazo1-5-yl)phenyl]methyl]carbamoyl)pyrrolidin-1-yl]-3,3-dimethyl-1-oxobutan-2-yl]carbamoyl]pentyl)phenyl]pentan-3-yl]carbamoyl]-12-oxo-1-azatricyclo[6.4.1.0^[4,13]]trideca-4(13),5,7-trien-11-yl]carbamoyl]-1H-indole-5-carbonylpho sphonate] | > 1000
11 | Cc1ncsc1-c1ccc([C@H](C)NC(=O)[C@@H]2C[C@@H](O)CN2C(=O)[C@@H](NC(=O)CCCCc2ccc(CO[C@H](C)[C@H](CCC(N)=O)NC(=O)[C@@H]3Cc4cccc5c4N3C(=O)[C@@H](NC(=O)c3cc4cc(C(=O)P(=O)(O)O)ccc4[nH]3)CC5)c(F)c2)C(C)(C)C)cc1 [Compound I-225, diammonium 2-[[(2S,11S)-2-[[(3S,4R)-1-carbamoyl-4-[[2-fluoro-4-(4-[[(2S)-1-[(2S,4R)-4-hydroxy-2-[[(1S)-1-[4-(4-methyl-1,3-thiazol-5-yl)phenyl]ethyl]carbamoyl]pyrrolidin-1-yl]-3,3-dimethyl-1-oxobutan-2-yl]carbamoyl]butyl)phenyl]methoxy]pentan-3-yl]carbamoyl]-12-oxo-1-azatricyclo[6.4.1.0^[4,13]]trideca-4(13),5,7-trien-11-yl]carbamoyl]-1H-indole-5-carbonylphosphonate] | 100 to 1000
12 | Cc1cc(CCCCC(=O)N[C@H](C(=O)N2C[C@H](O)C[C@H]2C(=O)N[C@@H](C)c2ccc(-c3scnc3C)cc2)C(C)(C)C)ccc1CO[C@H](C)[C@H](CCC(N)=O)NC(=O)[C@@H]1Cc2cccc3c2N1C(=O)[C@@H](NC(=O)c1cc2cc(C(=O)P(=O)(O)O)ccc2[nH]1)CC3 [Compound I-226, 2-[[(2S,11S)-2-[[(3S,4R)-1-carbamoyl-4-[[4-(4-[[(2S)-1-[(2S,4R)-4-hydroxy-2-[[(1S)-1-[4-(4-methyl-1,3-thiazol-5-yl)phenyl]ethyl]carbamoyl]pyrrolidin-1-yl]-3,3-dimethyl-1-oxobutan-2-yl]carbamoyl]butyl)-2-methylphenyl]methoxy]pentan-3-yl]carbamoyl]-12-oxo-1-azatricyclo[6.4.1.0^[4,13]]trideca-4(13),5,7-trien-11-yl]carbamoyl]-1H-indole-5-carbonylphosphonic acid] | 10 to 100
13 | Cc1ncsc1-c1ccc([C@H](C)NC(=O)[C@@H]2C[C@@H](O)CN2C(=O)[C@@H](NC(=O)CCCCc2ccc(CO[C@H](C)[C@H](CCC(N)=O)NC(=O)[C@@H]3Cc4cccc5c4N3C(=O)[C@@H](NC(=O)c3cc4cc(C(=O)P(=O)(O)O)ccc4[nH]3)CC5)cc2)C(C)(C)C)cc1 [Compound I-227] | 100 to 1000
